# Source: article PMC9814901, “One-pot synthesis of cyclic-aminotropiminium carboxylate derivatives with DNA binding and anticancer properties” (Communications Chemistry, 2022)
# Columns and labels:
# HeLa cells [1] = test: Cell cycle analysis by flow cytometry (PI); assay type: cell-based; conditions: 18 h, 6e 18 μM, 6j 19 μM, 6n 19 μM
# Experimental: HeLa cells were cultured in 6 well plates with initial density 0.5 × 10^6 cells/well. These cells were treated with the IC50 concentration of 6n, 6j, and 6e compounds for 18 h. The cells were washed with 1X PBS and fixed with 70% ethanol. After washing, cells were resuspended in 500 μl PBS containing Propidium Iodide (PI) (500 μg/ml), RNase A (1X), and Triton X-100 (0.1%), and incubated for 30 min in the dark. Finally, the cells were analyzed by flow cytometry (BD Biosciences, CA, USA). The relative proportions of cells with DNA content G0–G1 (2n), S phase (>2n but <4n), and G2/M phase (4n) were acquired and analyzed using CellQuest Pro software (BD Biosciences).
# HeLa cells [2] = test: Scratch (wound healing) assay in HeLa; assay type: cell-based; conditions: 6e 18 μM, 6j 19.23 μM, 6n 18.92 μM, 0 h to 24 h
# Experimental: HeLa and HEK293 cells (0.25 × 10^6) were seeded into 12-well plates to grow in a monolayer for 24 h. A Scratch was made in the middle of the well using a sterile 200 µl pipette tip. The detached cells were removed by washing with 1x DPBS. The cell monolayers were treated for 18 h with 19 µM of 6n and 6j, and 18 µM of 6e with 10% DMEM. DMSO with 10% DMEM was used as a control. Images were collected at 0 h and 24 h under an inverted microscope (Ziess, Germany) at (4×) magnification. Cell migration was analyzed using ImageJ (NIH) software.
# 4T1 cell derived tumor = test: 4T1 xenograft tumor growth in Balb/C mice; assay type: in vivo, mouse; conditions: Balb/C 4T1 model, 6e 1 mg/kg/day, 6j 0.5 mg/kg/day, 6n 1 mg/kg/day
# Experimental: To understand the potential and tolerance of 6e, 6j, and 6n compounds using in vivo system, we used Balb/C 4T1 cell line xenograft mouse model. Treatment was initiated after tumors reached a mean value of 20.47 mm^3 (day 8) and treated with 6e, 6j, and 6n at a dosage of 1 mg/kg/day, 0.5 mg/kg/day, and 1 mg/kg/day, respectively. Body weight and activity were observed three days post injection, every alternative day. […] Based on this study, we deduced that these compounds are well tolerated by the animals.
# All animal experiments were approved by the Institutional Animal Ethics Committee, NISER, India (AH-214). Female BALB/c mice (aged 6–8 weeks, 18–20 g) were injected with 1 × 10^6 4T1 breast cancer cells into the mammary fat pad. After one week, 6j (0.5 mg/kg), 6e (1 mg/kg) and 6n (1 mg/kg) compounds were injected intraperitoneally in mice at the interval of every 24 h for a period of 21 days. Thereafter, the mice were sacrificed and the xenograft tumors were removed, weighed, and photographed.
# ct-DNA duplex = test: Circular dichroism of ct-DNA with cATC derivatives; assay type: binding; conditions: increasing concentration of cATC derivatives
# Source text: Further, we examined the effect of cATC derivatives (6a/6e/6j/6n) on the ct-DNA duplex structure by circular dichroism (CD) studies. We recorded the CD spectra of ct-DNA with the increasing concentration of cATC derivatives (SM, Fig. S24). […] Next, we examined the binding site of cATC derivative (ligand) at the DNA duplex structure by using AutoDock-Vina, a well-reported computational docking program. We performed docking of cATC derivatives (6a/6d/6k) crystal structure (ligand) with dodecamer DNA duplex crystal structure (PDB ID-1BNA) as the receptor. Our docking results strongly support the non-covalent interaction of cATC derivatives (6a/6d/6k) at the DNA-minor groove with the binding affinity ~7.0 Kcal/mole, mostly hydrophobic interactions (SM, Figs. S25–7, Table S8). […] Overall, cATC derivatives non-covalently bind with DNA duplex through the non-intercalative mode without affecting the native duplex structure. Next, we examined the DNA binding affinity of cATC derivatives (6e/6j/6n) by gel-electrophoresis. The different concentrations of human genomic DNA were treated with EtBr (control) and cATC derivatives (6e/6j/6n) and ran on 1% agarose gel (SM, Fig. S28A–D). […] Further, the Microscale thermophoresis (MST) technique was used to calculate the binding affinities of cATC derivatives (6e/6j/6n) (20 µM) with varying concentrations of human genomic DNA (40 fM to 75 pM).
# HeLa cells [3] = test: Confocal microscopy localization in HeLa cells; assay type: cell-based; conditions: IC50 concentrations, 12-18 h
# Experimental: Herein we have shown that cATC fluorescent derivatives bind with ct-DNA in the non-intercalating mode. Thus we assumed that cATC derivatives might bind to the DNA, localizing within the nucleus and affecting the cell division. We studied the localization of fluorescent signals in HeLa cells using IC50 concentrations of compounds (6e, 6j, and 6n) at different time points using a confocal microscope. For all the compounds initially (at 12 h), the signal was present in the cytoplasm and the nucleus (Fig. 6A–C). With increasing time, the signal became more intense in the nucleus (Fig. 6A–D).
# HeLa cells (60,000) were grown onto a coverslip (Coverglass for cell Growth™, Fisherbrand, USA) in a 24-well plate. […] Thereafter, cells were fixed in 4% paraformaldehyde (Himedia), washed with ice-cold 1X PBS, permeabilized with 0.25% Triton X-100 (Sigma), and washed with 0.1% PBST. The cell was counter stained with 49,6-diamidino-2-phenylindole, dihydrochloride (DAPI, Invitrogen) and mounted using one drop of ProLong® Gold antifade reagent (Invitrogen) on a slide. Images were acquired by fluorescence microscope (Leica SP8 TCS) and analyzed using ImageJ (NIH).
compound,measurement,setting,value
Cc1cccc(C2C(C(=O)[O-])N(CCc3ccccc3)c3ccccc[c+]3N2Cc2ccccc2)c1 (stereo not drawn) [Compound 6e],cells in G2/M phase,HeLa cells [1]; control 24.36%,7.05%
same,cells in S phase,HeLa cells [1]; control 28.84%,34.61%
same,cells in G0/G1 phase,HeLa cells [1]; control 46.78%,58.33%
same,effect on cell migration in scratch wound,HeLa cells [2],inhibited cell migration significantly
same,tumor growth / tumor size,4T1 cell derived tumor; day 8 till day 20,inhibit tumor growth in vivo
same,behavior/activity versus control group,4T1 cell derived tumor; intraperitoneal,normal behavior/activity
same,body weight versus control group,4T1 cell derived tumor; intraperitoneal,no significant difference in body weight
same,effect on B-type duplex CD spectrum of ct-DNA,ct-DNA duplex,almost remained unchanged
same,cellular localization of fluorescent signal,HeLa cells [3],penetrate the cell membrane and localize to the nucleus
